Data: paper PMC11189555, “Aryl amino acetamides prevent Plasmodium falciparum ring development via targeting the lipid-transfer protein PfSTART1” (Nature Communications, 2024)
Read-outs that look alike come from different tables or passages of the source.

Tested on: PopE F8 M-833 resistant clone (PfSTART1 N330K)
Assay: Growth inhibition assay (72 h, LDH activity)
Type: cell-based, Plasmodium falciparum
Description: The drug was then removed, and parasites were allowed to recover. Another cycle of drug treatment (3 μM M-833) was then resumed. The resistant lines were cloned out by limiting dilution (diluting the culture into a 96-well plate to achieve an average of ~0.3 parasites per well), prior to growth inhibition assays and genomic DNA (gDNA) extraction (DNeasy Blood and Tissue kit (Qiagen)[18].
Parasite growth assays with inhibitory compounds were performed as per[11] and are fully described in the Supplementary Information.
Molecular biology and transfection of P. falciparum: CRISPR method.
The full 5’ homology region of pfstart1 (either WT, N309K or N330K) was amplified from pPfSTART1-HA-2A-Neo-glmS with the same 5’ BglII primer and a new 3’ primer that replaced with PstI with SpeI and introduced a stop codon. The PCR product was then digested with BglII and SpeI and inserted into similarly digested p1.2 parasite vector2. The p1.2 vector had previously been inserted with a homology region amplified from the 3’ end of the pfstart1 gene (3’HB) to form a second homology block for double recombination. The primers used to amplify 3’HB are listed primers listed in […]
60 μg of p1.2-PfSTART1(WT/N309K/N330K) plasmid was linearised with KasI, precipitated in 3 M sodium acetate and ethanol (70% final concentration) overnight at -20°C. The DNA pellet was washed in cold 70% ethanol and resuspended in cytomix 3.
50 μ M of crRNA ( Table S 2) and 50 μM of tracRNA (Integrated DNA Technologies) were allowed to form a duplex (5 min at 95°C), and Cas9 enzyme (Integrated DNA Technologies) was added, and incubated for 20 min at room temperature 4. This crRNA -tracRNA -Cas9 mix was added to each DNA preparation and transfected to 3D7 ring parasites using the Bio -Rad Gene Pulser at 310 V and 950 μF.
Parasites containing the transfected DNA were selected using 2.5 nM WR99210 (Jacobus). Parasites lines were cloned using limiting dilution. Correct integration was tested by PCR (using primer START_5’UTR.F and START_Int.R1 , Table S 2), and sequencing was done using the primers START_3F and START_Int.R2 (Table S 2).
Growth inhibition assays. Synchronised ring-stage parasites (0.3-0.6% parasitemia, 2% haematocrit) were grown for 72 h in a serial-dilution of the compound under […]
and compound 4. Note that M-833 was first purchased from MolPort (MolPort -002-267-916) then made in-house at WEHI: the differences observed in EC50s across experiments are attributed to the different batches of M -833. For some experiments, 0, 0.25 or 2.5 mM of glucosamine (GlcN) was also added. Experiments were set up in technical duplicates or triplicates. Following a freeze -thaw cycle, lactate dehydrogenase (LDH) activity was assessed as an indicator of parasite growt h 5. 30 μL of parasite culture was incubated for 30 min in the dark with 75 μL Malstat mixture (0.1 M Tris pH 9.0, 20 g/L lactic acid, pH 7.5, 0.2% Triton-X100, 0.5 g/L acetylpyridine adenine dinucleotide (APAD, Sigma), 200 μg/mL nitroblue tetrazolium (NBT; Sigma), 1 μg/mL phenozine ethosulfate (PES; Sigma)). Absorbance was then measured at 650 nm, transformed using the formula below, plotted against the logarithm of the concentrations, and a non-linear regression (log(inhibitor) vs. response, variable slope) was calculated using GraphPad Prism to assess the half-inhibitory […]
Growth inhibition % = (1 − average(sample)− average(uRBC)) ∗ 100 […]
The DMSO samples were also used to assess growth of parasite in the presence of 0.25 and 2.5 mM GlcN (normalised by DMSO in 0 mM GlcN).
Egress, invasion & recovery assay. To measure egress, invasion and follow up recovery in the presence of different compounds, we adapted the method developed in6, using Hyp1-Nluc parasites7. These parasites episomally express the exported PEXEL protein Hyp1 (PF3D7_0113300) tagged with a NanoLuc luciferase (NLuc) and were selected with 2.5 nM WR99210 (Jacobus). Highly synchronised schizonts were […]

Cc1cc(Cl)c(S(=O)(=O)N2CCCC2)cc1OCC(=O)NC1CCCCC1 [M-833]
Normalised to DMSO (M-833 0.0390625 uM, Pop E-F8 replicate 1): 109.671
Normalised to DMSO (M-833 0.0390625 uM, PopE-F8 replicate 3): 109.081
Normalised to DMSO (M-833 0.078125 uM, Pop E-F8 replicate 1): 111.583
Normalised to DMSO (M-833 0.078125 uM, PopE-F8 replicate 3): 106.576
Normalised to DMSO (M-833 0.15625 uM, Pop E-F8 replicate 1): 105.619
Normalised to DMSO (M-833 0.15625 uM, PopE-F8 replicate 3): 106.576
Normalised to DMSO (M-833 0.3125 uM, Pop E-F8 replicate 1): 109.939
Normalised to DMSO (M-833 0.3125 uM, PopE-F8 replicate 3): 106.263
Normalised to DMSO (M-833 0.625 uM, Pop E-F8 replicate 1): 106.384
Normalised to DMSO (M-833 0.625 uM, PopE-F8 replicate 3): 108.612
Normalised to DMSO (M-833 1.25 uM, Pop E-F8 replicate 1): 102.255
Normalised to DMSO (M-833 1.25 uM, PopE-F8 replicate 3): 105.48
Normalised to DMSO (M-833 2.5 uM, Pop E-F8 replicate 1): 99.4266
Normalised to DMSO (M-833 2.5 uM, PopE-F8 replicate 3): 94.0501
Normalised to DMSO (M-833 5 uM, Pop E-F8 replicate 1): 83.5245
Normalised to DMSO (M-833 5 uM, PopE-F8 replicate 3): 74.6347
Normalised to DMSO (M-833 10 uM, Pop E-F8 replicate 1): 58.7156
Normalised to DMSO (M-833 10 uM, PopE-F8 replicate 3): 75.7307
inhibition at 0.0390625 µM (Plasmodium falciparum, M-833 0.0390625 uM, Pop E-F8 replicate 1, read-out: % Inhibition): -9.67%
inhibition at 0.0390625 µM (Plasmodium falciparum, M-833 0.0390625 uM, PopE-F8 replicate 3, read-out: % Inhibition): -9.08%
inhibition at 0.078125 µM (Plasmodium falciparum, M-833 0.078125 uM, Pop E-F8 replicate 1, read-out: % Inhibition): -11.6%
inhibition at 0.078125 µM (Plasmodium falciparum, M-833 0.078125 uM, PopE-F8 replicate 3, read-out: % Inhibition): -6.58%
inhibition at 0.15625 µM (Plasmodium falciparum, M-833 0.15625 uM, Pop E-F8 replicate 1, read-out: % Inhibition): -5.62%
inhibition at 0.15625 µM (Plasmodium falciparum, M-833 0.15625 uM, PopE-F8 replicate 3, read-out: % Inhibition): -6.58%
inhibition at 0.3125 µM (Plasmodium falciparum, M-833 0.3125 uM, Pop E-F8 replicate 1, read-out: % Inhibition): -9.94%
inhibition at 0.3125 µM (Plasmodium falciparum, M-833 0.3125 uM, PopE-F8 replicate 3, read-out: % Inhibition): -6.26%
inhibition at 0.625 µM (Plasmodium falciparum, M-833 0.625 uM, Pop E-F8 replicate 1, read-out: % Inhibition): -6.38%
inhibition at 0.625 µM (Plasmodium falciparum, M-833 0.625 uM, PopE-F8 replicate 3, read-out: % Inhibition): -8.61%
inhibition at 1.25 µM (Plasmodium falciparum, M-833 1.25 uM, Pop E-F8 replicate 1, read-out: % Inhibition): -2.26%
inhibition at 1.25 µM (Plasmodium falciparum, M-833 1.25 uM, PopE-F8 replicate 3, read-out: % Inhibition): -5.48%
inhibition at 2.5 µM (Plasmodium falciparum, M-833 2.5 uM, Pop E-F8 replicate 1, read-out: % Inhibition): 0.573%
inhibition at 2.5 µM (Plasmodium falciparum, M-833 2.5 uM, PopE-F8 replicate 3, read-out: % Inhibition): 5.95%
inhibition at 5 µM (Plasmodium falciparum, M-833 5 uM, Pop E-F8 replicate 1, read-out: % Inhibition): 16.5%
inhibition at 5 µM (Plasmodium falciparum, M-833 5 uM, PopE-F8 replicate 3, read-out: % Inhibition): 25.4%
inhibition at 10 µM (Plasmodium falciparum, M-833 10 uM, Pop E-F8 replicate 1, read-out: % Inhibition): 41.3%
inhibition at 10 µM (Plasmodium falciparum, M-833 10 uM, PopE-F8 replicate 3, read-out: % Inhibition): 24.3%
inhibition at 0.0390625 µM (Plasmodium falciparum, Pop E-F8 replicate 1, M-833 0.0390625 uM): -1.3%
inhibition at 0.078125 µM (Plasmodium falciparum, Pop E-F8 replicate 1, M-833 0.078125 uM): -1.67%
inhibition at 0.15625 µM (Plasmodium falciparum, Pop E-F8 replicate 1, M-833 0.15625 uM): 1.93%
inhibition at 0.3125 µM (Plasmodium falciparum, Pop E-F8 replicate 1, M-833 0.3125 uM): 3.08%
inhibition at 0.625 µM (Plasmodium falciparum, Pop E-F8 replicate 1, M-833 0.625 uM): 3.36%
inhibition at 1.25 µM (Plasmodium falciparum, Pop E-F8 replicate 1, M-833 1.25 uM): 4.32%
inhibition at 2.5 µM (Plasmodium falciparum, Pop E-F8 replicate 1, M-833 2.5 uM): 11.8%
inhibition at 5 µM (Plasmodium falciparum, Pop E-F8 replicate 1, M-833 5 uM): 18.8%
inhibition at 10 µM (Plasmodium falciparum, Pop E-F8 replicate 1, M-833 10 uM): 41%
EC50 (Plasmodium falciparum, read-out: EC50 (95% confidence interval)): > 10 µM
Normalised to DMSO (Pop E-F8 replicate 1, M-833 0.0390625 uM): 101.305
Normalised to DMSO (Pop E-F8 replicate 1, M-833 0.078125 uM): 101.672
Normalised to DMSO (Pop E-F8 replicate 1, M-833 0.15625 uM): 98.0669
Normalised to DMSO (Pop E-F8 replicate 1, M-833 0.3125 uM): 96.9165
Normalised to DMSO (Pop E-F8 replicate 1, M-833 0.625 uM): 96.6437
Normalised to DMSO (Pop E-F8 replicate 1, M-833 1.25 uM): 95.6831
Normalised to DMSO (Pop E-F8 replicate 1, M-833 2.5 uM): 88.1997
Normalised to DMSO (Pop E-F8 replicate 1, M-833 5 uM): 81.2026
Normalised to DMSO (Pop E-F8 replicate 1, M-833 10 uM): 58.9777
